“Also recorded” adds a separate entry of the source.
How the values were obtained:
[1] = tested on: NFkB p65; assay: ChIP of NFkB p65 at MCP-1 and RANTES promoters in HKC cells; assay type: cell-based, human
Excerpt: The in situ interaction between NFκB and its target genes in HKC cells was examined by ChIP assay (35) using a commercially available kit (Upstate Biotechnology, Charlottesville, Va.) according to manufacturer's instructions. Briefly, HKC cells were fixed and crosslinked with 4% formaldehyde. After collection of cell pellets and sonication, aliquots of the samples were set aside as input fraction and the rest subjected to immunoprecipitation using an anti-NFκB p65 antibody or preimmune IgG and Protein A agarose used to pull down the immune complexes. After elution, precipitated chromatin as well as the input fraction was heated at 65° C. to reverse crosslinks and the DNA extracted with Qiagen PCR purification kit (Qiagen, Valencia, Calif.). DNA sequences spanning the κB responsive elements in the promoter region were amplified by PCR using specific primers (MCP-1, forward 5′-[…]-3′ (SEQ ID NO: 1), reverse 5′-[…]-3′(SEQ ID NO: 2), Genbank accession number Y18933; RANTES, forward 5′-[…]-3′ (SEQ ID NO: 3), reverse 5′-[…]-3′ (SEQ ID NO: 4), Genbank accession number S64885) for a number of cycles in the exponential phase as estimated in pilot experiments. DNA samples extracted from input fractions were amplified in parallel for normalization. PCR products resolved in ˜1.5 to 2% agarose gels were photographed under ultraviolet light.

[2] = tested on: NFkB p65; assay: TNF-a induced NFkB p65 phosphorylation in HKC cells (immunoblot); assay type: cell-based, human
Description: Human proximal TEC (HKC-8) (courtesy of Dr. L. Racusen of John Hopkins University, Baltimore, Md.) were maintained in Dulbecco's modified Eagle's medium (DMEM)/F12 supplemented with 5% fetal bovine serum (FBS). Cells were plated at approximately 70% confluence in the media containing 5% FBS for 24 h and then underwent serum starvation for another 24 h. Human recombinant HGF and human recombinant TNF-α (R&D systems, Minneapolis, Minn.) were added to the culture with fresh serum-free medium at a final concentration of 20 ng/ml and 2 ng/ml respectively, or otherwise as indicated. Cell viability was assessed by Trypan blue exclusion. At different time points, cells and conditioned media were harvested for further investigation.
After different treatments, HKC cells were washed with PBS and lysed with RIPA buffer supplemented with protease inhibitors [1% Nonidet P-40, 0.1% SDS, 100 ug/ml phenylmethysulfonyl fluoride (PMSF), 0.5% sodium deoxycholate, ImM sodium orthovanadate, 2 ug/ml aprotin, 2 ug/ml leupeptin, 5mM EDTA in PBS]. Protein concentration was determined by using a bicinchoninic acid protein assay kit (Sigma). All samples with equal amounts of total protein (50 ug/ml) were fractionated by 7.5˜15% SDS-polyacrylamide gels under reducing condition and analyzed by western immunoblot as described previously (30). The antibodies against p-GSK3b, p-NFkB p65, p-IkBa were purchased from Cell Signaling Technology (Beverly, Mass.) and those for GSK3b, hemagglutin were from Santa Cruz Biotechnology (Santa Cruz, Calif.).

[3] = tested on: MCP-1 and RANTES; assay: Chemokine expression in immortalized rat proximal tubular cells (IRPTC); assay type: cell-based
[4] = tested on: PI3K-Akt; assay: PI3K-Akt activation in HKC / TEC; assay type: cell-based, human
[5] = tested on: endothelial E-selectin; assay: Acute inflammation induced by bolus injection of TNF-α in vivo; settings: infusion of exogenous HGF
[6] = tested on: NF-kB and IkB; assay: NF-kB and IkB phosphorylation and IkB degradation in endothelial cells; assay type: cell-based
Description: In certain embodiments, NF-kB p65 phosphorylation is assessed as follows. Cell lysates with equal amounts of total protein are immunoblotted for phosphorylated NF-kB p65 or total p65. Anti-phosphorylated NF-kB p65 antibody is commercially available, e.g., from Cell Signaling, MA. Densitometric results of phosphorylated NF-kB p65 and total p65 bands as well as the ratio of pp65/p65 are compared between different transfections at different time points.
In certain embodiments, IkB phosphorylation and degradation is evaluated as follows. Cell lysates with equal amounts of total protein are immunoblotted for phosphorylated IkBa (anti-phosphorylated IkBa antibody is available from Cell Signaling. MA) or total IkBa. Densitometric results of phosphorylated IkBa and total IkBa bands are compared across the different treatments and time points.

[7] = tested on: NF-κB; assay: Gel shift assay of HKC nuclear extract with NF-κB consensus sequence; assay type: cell-based, human; settings: HKC cells, 4 h
[8] = molecular target: T1, GSK3b (Rattus norvegicus, UniProt P18266); assay: Renal GSK3b expression in the kidney; assay type: in vivo
T1 construct: from tissue; host or cells: rat kidney (homogenate)
T1 sequence (P18266 whole entry): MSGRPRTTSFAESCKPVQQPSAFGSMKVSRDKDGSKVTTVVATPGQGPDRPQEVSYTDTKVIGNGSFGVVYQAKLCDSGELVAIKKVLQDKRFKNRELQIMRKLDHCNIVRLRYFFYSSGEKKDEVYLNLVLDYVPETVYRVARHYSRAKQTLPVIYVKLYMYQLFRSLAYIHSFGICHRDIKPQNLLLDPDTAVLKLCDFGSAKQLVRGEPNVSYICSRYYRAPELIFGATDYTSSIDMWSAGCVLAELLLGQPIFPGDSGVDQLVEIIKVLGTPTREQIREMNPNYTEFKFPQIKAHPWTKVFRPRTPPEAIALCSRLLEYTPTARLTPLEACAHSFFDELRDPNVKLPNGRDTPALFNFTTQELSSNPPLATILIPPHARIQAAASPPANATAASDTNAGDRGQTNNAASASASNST
Description: In certain embodiments, measurement of GSK level and activity in tissue samples is carried out as follows. Total expression of GSK3b, is measured by western immunoblot in kidney homogenates using a commercially available mouse monoclonal antibody against rat GSK3b (Santa Cruz Biotechology). Densitometric analysis of immunoblot bands is used to compare protein abundance of GSK3b in remnant kidneys and controls at each time point.

[9] = tested on: remnant kidney rats; assay: Rat remnant kidney model (5/6 nephrectomy); assay type: in vivo; settings: for inflammation and injury in remnant kidneys: rats, treatment for 2 wk beginning 2 wk after nephrectomy
Excerpt: We examined the molecular mechanism of HGF's anti-inflammatory actions in a model of CKD. Beginning 2 wk after ⅚^th nephrectomy, rats received exogenous HGF, neutralization of endogenous HGF by daily injection of an anti-HGF antibody, or preimmune IgG for 2 wk. […] There were parallel alterations in endothelial activation and inflammation, marked by de novo E-selectin expression and leukocyte adhesion to renal vascular endothelium. […] Thus, the GSK3b inhibitor HGF has direct anti-inflammatory effects via suppression of NF-KB and endothelial inflammation.

[10] = tested on: phosphatidylinositol 3-kinase (PI3K)-Akt; assay: PI3K-Akt activation in HUVEC; assay type: cell-based, human
[11] = tested on: E-selectin; assay: TNF-α induced E-selectin expression in HUVEC; assay type: cell-based, human

With “HGF: Human recombinant HGF (R&D systems); induces inhibitory phosphorylation of GSK3b” as the substance, how does the “TNF-a induced recruitment of NFkB p65 to MCP-1 and RANTES promoters” value [1] read?
The value was “substantially attenuated by concomitant HGF treatment; also recorded: markedly attenuated”.

And the “TNF-a induced p65 phosphorylation at other sites (S276, S536)” value ([2]; HKC cells)?
Its value is “had minimal effect on S276”.

And the “HGF inhibition of TNF-a-induced phosphorylation of p65 at S468” value ([2]; HKC cells expressing GSK3b S9A)?
Its value is “strikingly abolished in cells expressing S9A; also recorded: obliterated in HKC cells expressing GSK3b S9A”.

What about the “TNF-a induced p65 phosphorylation at S468” value ([2]; HKC cells, TNF-a 2 ng/ml, VPA 1 mM, 10 uM for 60 minutes) of the same substance?
The value was “markedly abolished TNF-a induced phosphorylation of S468 in a time dependent fashion; also recorded: suppresses NFkB phosphorylation specifically at S468”.

What about the “basal and TNF-α induced expression of MCP-1 and RANTES” value [3] of the same substance?
Its value is “suppressed basal and TNF-α induced expression of MCP-1 and RANTES”.

What about the PI3K-Akt activation [4] of the same substance?
The PI3K-Akt activation was “elicited PI3K-Akt activation; also recorded: activates PI3K-Akt in TEC”.

What about the “endothelial expression of E-selectin” value [5] of the same substance?
Its value is “reduced endothelial expression of E-selectin induced by bolus injection of TNF-α”.

And the “sequestration of circulating macrophages in the kidney” value [5]?
The value was “less sequestration of circulating macrophages in the kidney”.

And the “NF-kB and IkB phosphorylation and IkB degradation” value [6]?
The value was “inhibition of NF-kB and IkB phosphorylation and IkB degradation”.

What about the “TNF-α induced binding of nuclear extract to NF-κB consensus oligonucleotides” value [7] of the same substance?
Its value is “markedly blunted by HGF; also recorded: attenuated by HGF”.

And the “renal GSK3b expression” value [8]?
The value was “markedly decreased GSK3b expression”.

And the “sequestration of circulating macrophages in the remnant kidney” value ([9]; exogenous HGF)?
The value was “markedly diminished sequestration of circulating macrophages in the remnant kidney”.

What about the “inflammation and injury in remnant kidneys” value [9] of the same substance?
Its value is “ameliorated; also recorded: reduces inflammatory infiltration, tubular and glomerular injury”.

And the “inflammation and injury in remnant kidneys” value ([9]; listed as hepatocyte growth factor)?
The value was “profoundly ameliorating gross renal inflammation”.

And the “expression of metalloproteinase-9 (MMP-9)” value ([9]; remnant kidney rats)?
Its value is “increasing expression of metalloproteinase-9 (MMP-9)”.

What about the “expression of transforming growth factor-beta (TGF-β)” value ([9]; remnant kidney rats) of the same substance?
The value was “did not reduce expression of transforming growth factor-beta (TGF-β)”.

What about the “levels of PAI-1 and TIMP-1” value ([9]; remnant kidney rats) of the same substance?
Its value is “decreasing levels of plasminogen activator inhibitor-1 (PAI-1) and tissue inhibitor of metalloproteinase-1 (TIMP-1)”.

What about the “renal / tubular expression of proinflammatory molecules (MCP-1, RANTES, E-selectin)” value ([9]; remnant kidney rats) of the same substance?
Its value is “decreased staining to normal”.

And the interstitial injury ([9]; remnant kidney rats with established renal injury)?
Its interstitial injury is “reduced interstitial injury”.

What about the “decrease of interstitial macrophages” value ([9]; remnant kidney rats, continuous infusion for two weeks) of the same substance?
The value was “more than 50%”.

What about the “renal / tubular expression of proinflammatory molecules (MCP-1, RANTES, E-selectin)” value ([9]; remnant kidney rats, listed as hepatocyte growth factor) of the same substance?
The value was “reduced renal expression of proinflammatory molecules such as RANTES, and E-selectin”.

And the PI3K-Akt activation [10]?
Its PI3K-Akt activation is “activated phosphatidylinositol 3-kinase (PI3K)-Akt”.

And the “HGF inhibition of TNF-a induced E-selectin expression” value ([11]; HUVEC expressing uninhibitable mutant S9A-GSK3b)?
Its value is “abolished HGF suppression of E-selectin; also recorded: abolished the suppressive action of HGF; also recorded: abolishes HGF inhibition of endothelial E-selectin”.

What about the “HGF inhibition of TNF-a induced E-selectin expression” value ([11]; HUVEC transfected with pcDNA3 or HA-WT-GSK3b) of the same substance?
Its value is “HGF inhibition of E-selectin expression was evident”.

And the “TNF-α induced E-selectin expression” value ([11]; HUVEC, lithium 20 mM, HGF 100 ng/ml, TNF-a 0.5 ng/ml)?
The value was “suppressed endothelial expression of E-selectin; also recorded: suppressed TNF-α-induced expression of E-selectin; also recorded: attenuates TNF-α elicited E-selectin expression; also recorded: attenuates TNF-a (0.5 ng/ml) elicited E-selectin expression”.

From patent US8110365B2, “Compositions and methods for detecting and treating renal injury and inflammation” (Rhode Island Hospital, priority 2006, dated 2012)
